Results taken from patent publication US5756121A, “Antibiotic formulation and use for drug resistant infections” (NeXstar Pharmaceuticals, Inc., priority 1995, dated 1998).
“And” between values parts separate entries of the source, which are not always exact repeats. Equal values may be shown once.

How the values were obtained:
MAC (101, type 1) = test: Treatment of MAC-infected beige mice, first experiment (organism burden in spleen, liver, lung); assay type: in vivo
Method: The testing of liposome encapsulated amikacin for the treatment of MAC was performed using a murine model. Beige mice (C57B1/6bg^j /bg^j) were infected with MAC (101, type 1). The mice were infected by injection of 1×10^7 Colony Forming Units (cfu) in the mouse tail vein (i.v.). Three experiments were performed. In the first experiment, 40, 80 and 120 milligrams of amikacin (liposomal and free) per kilogram of mouse body-weight was given i.v. daily for 5 days, beginning 7 days after infection. The animals were sacrificed 5 days after treatment was completed and the liver, lung and spleen tissue were plated. Quantitation of organisms in liver, spleen and lung tissue was performed. The cfu were determined by growth on Middlebrook 7h11 agar plates. Untreated and empty liposomes were used as controls.
The liposomes were prepared as in Example 1. This experiment was performed in two identical parts. The liposomes in the first part were of an average size of 49.8 nm and the average size of the liposomes in the second part were 73.7 nm (mean diameter). The amikacin concentration was either 15.0 mg/ml or 13.21 mg/ml and the total lipid concentration was either 121 mg/ml or 55.7 mg/ml respectively (drug to lipid ratios: 0.123, 0.24). Free drug for all experiments was prepared in the same buffer that the liposomal formulations were contained in.

Pseudomonas aeruginosa = test: Efficacy and toxicity in Pseudomonas infected mice (mortality); assay type: in vivo, Pseudomonas aeruginosa (clinical isolate) in CF-1 mice
Method: The efficacy and toxicity of liposomal amikacin in Pseudomonas infected mice was tested. CF-1 mice were used (females, 6-8 weeks old). The mice were obtained from Jackson Labs. A clinical isolate of Pseudomonas aeruginosa was obtained on a Mueller Hinton/MacConkey blood agar plate. The organisms were transferred to a Mueller Hinton plate and grown for 24 hours. Colonies were transferred to saline and grown for 48 hours. The samples were frozen in saline containing 15% fetal calf serum at 1×10^8 organisms/ml (MacFarland Standard). The colonies were stored at -70° C. The colonies were thawed and grown in a Mueller Hinton plate for 24 hours. The bacteria were adjusted to 8×10^6 organisms/ml in saline containing talc (62.5 mg/ml) and 1 ml was injected intraperitoneal. A culture of inoculum on MH agar for 24 hours determined that approximately 7×10^6 cfu were delivered per mouse. Liposomal amikacin and empty liposomes were prepared as set out in Example 2. […] The lipid concentration was 95.31 mg/ml and the amikacin concentration was 23.54 mg/ml (0.25 drug/lipid ratio). The pH of the solution containing the formulation was 7.31. […] The concentration of the free amikacin solution was 23.54 mg/ml. The pH of the solution containing the liposomes was 7.33.
Mice were treated with 40 mg/kg (drug per body-weight), 80 mg/kg, 120 mg/kg and 240 mg/kg of liposomal amikacin. Mice were also treated with 40 mg/kg, 80 mg/kg, and 120 mg/kg of free amikacin. The drugs were administered intravenously in the caudal vein. Two doses were given; one at four hours after infection and one at twenty-four hours after infection.

in vivo = test: in vivo; design: species or system mouse (C57B1/6); conditions: mouse
Method: Amikacin content was measured in mouse (C57B1/6, females 2-3 months old) plasma after injection (i.v.) of free amikacin or liposomal amikacin (100 mg/kg). Liposomal amikacin was prepared as described in Example 2. Blood samples were obtained at various time intervals. The samples were collected by removing 100 microliters of blood, retroorbitally, from nonanesthetized mice. The samples were collected in heparinized capillary pipets which were plugged with modeling clay. The samples were centrifuged at 3250 rpm (20 cm rotor) for 10 minutes. The samples were analyzed using a radioimmunoassay (Diagnostic Products). The liposomal amikacin formulation contained liposomes with an average size of 43.6 nm (median diameter). The amikacin concentration was 10.09 mg/ml and the total lipid concentration was 56.8 mg/ml (drug to lipid ratio […]).

[1] = system: M. tuberculosis, drug susceptible strain H37RV; test: Activity against drug susceptible TB in infected human monocyte-derived macrophages; assay type: cell-based, Mycobacterium tuberculosis (in human macrophages); conditions: for CFU: duplicate values
[2] = mice, 150 mg/kg; known in the art; cited from earlier work

NCC[C@H](O)C(=O)N[C@@H]1C[C@H](N)[C@@H](O[C@H]2O[C@H](CN)[C@@H](O)[C@H](O)[C@H]2O)[C@H](O)[C@H]1O[C@H]1O[C@H](CO)[C@@H](O)[C@H](N)[C@H]1O [amikacin]
Lung log cfu/gram (MAC (101, type 1); 40 mg/kg i.v. daily for 5 days): 6.16 log | Lung log cfu/gram (MAC (101, type 1); 80 mg/kg i.v. daily for 5 days): 6.11 log | Lung log cfu/gram (MAC (101, type 1); 120 mg/kg i.v. daily for 5 days): 6.00 log | Mortality #died/#tested (Pseudomonas aeruginosa; 40 mg/kg i.v., two doses (4 h and 24 h after infection), 24 hours post infection): 1/4 | Mortality #died/#tested (Pseudomonas aeruginosa; 40 mg/kg i.v., two doses, 30 hours post infection): 1/4 | Mortality #died/#tested (Pseudomonas aeruginosa; 40 mg/kg i.v., two doses, 48 hours post infection): 1/4 | Mortality #died/#tested (Pseudomonas aeruginosa; 40 mg/kg i.v., two doses, 72 hours post infection): 1/4 | Mortality #died/#tested (Pseudomonas aeruginosa; 80 mg/kg i.v., two doses (4 h and 24 h after infection), 24 hours post infection): 0/6 | Mortality #died/#tested (Pseudomonas aeruginosa; 80 mg/kg i.v., two doses, 30 hours post infection): 0/6 | Mortality #died/#tested (Pseudomonas aeruginosa; 80 mg/kg i.v., two doses, 48 hours post infection): 0/6 | Mortality #died/#tested (Pseudomonas aeruginosa; 80 mg/kg i.v., two doses, 72 hours post infection): 0/6 | Mortality #died/#tested (Pseudomonas aeruginosa; 120 mg/kg i.v., two doses (4 h and 24 h after infection), 24 hours post infection): 0/6 | Mortality #died/#tested (Pseudomonas aeruginosa; 120 mg/kg i.v., two doses, 30 hours post infection): 0/6 | Mortality #died/#tested (Pseudomonas aeruginosa; 120 mg/kg i.v., two doses, 48 hours post infection): 0/6 | Mortality #died/#tested (Pseudomonas aeruginosa; 120 mg/kg i.v., two doses, 72 hours post infection): 0/6 | Average plasma concentration of amikacin (in vivo; 100 mg/kg i.v., 6 hours): none detected | concentration at 5 min (in vivo; in vivo, iv, 100 mg/kg): 406 µg/mL | concentration at 0.25 h (in vivo; in vivo, iv, 100 mg/kg): 106 µg/mL | concentration at 2 h (in vivo; in vivo, iv, 100 mg/kg): 65 µg/mL | inhibition / killing of drug susceptible bacteria (in words) ([1]; 1 μg/ml): inhibited the growth of the bacteria | CFU ([1]; 1 μg/ml, day 4): 50 1 × 10^3 cfu per monolayer and 60 1 × 10^3 cfu per monolayer | CFU ([1]; 1 μg/ml, day 7): 900 1 × 10^3 cfu per monolayer and 800 1 × 10^3 cfu per monolayer | inhibition / killing of drug susceptible bacteria (in words) ([1]; 2 μg/ml, day 4): inhibition | CFU ([1]; 2 μg/ml, day 4): 20 1 × 10^3 cfu per monolayer | CFU ([1]; 2 μg/ml, day 7): 40 1 × 10^3 cfu per monolayer and 50 1 × 10^3 cfu per monolayer | inhibition / killing of drug susceptible bacteria (in words) ([1]; 4 μg/ml, day 4): killing at day 4 | CFU ([1]; 4 μg/ml, day 4): 4 1 × 10^3 cfu per monolayer and 5 1 × 10^3 cfu per monolayer | CFU ([1]; 4 μg/ml, day 7): 1.5 1 × 10^3 cfu per monolayer and 3 1 × 10^3 cfu per monolayer | lethality (in words) [2]: will kill many of the mice injected
